Data taken from patent US9551722B2, “Amyloid binding agents” (The Regents of the University of California, priority 2009, dated 2017).
pKd: −log10 of the molar value.

How the values were obtained:
[1] = target: T1, aggregated Aβ(1-42) peptides (Homo sapiens, UniProt P05067); experiment: Fluorescence spectra before and after mixing with preaggregated Aβ(1-42) (Cmpds 8a-8d, 11, 14, 19); format: binding; details: for Emission max before binding / Excitation max before binding: 4 μM compound in PBS, without Aβ; for Emission max before binding / Excitation max before binding / Emission max after binding / Excitation max after binding: 25° C.; for Fold increase (fluorescence intensity after binding) / Emission max after binding / Excitation max after binding: 4 μM compound, 5 μM aggregated Aβ(1-42); for Emission max after binding / Excitation max after binding: PBS
T1 construct: preaggregated Aβ(1-42) peptides
T1 sequence (P05067 672-713 limits assumed): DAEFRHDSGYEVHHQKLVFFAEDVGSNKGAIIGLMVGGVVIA
Source text: An initial study to determine whether a compound can associate with aggregated Aβ is to compare its fluorescence spectra before and after mixing with the Aβ aggregates. See E. E. Nesterov, J. Skoch, B. T. Hyman, W. E. Klunk, B. J. Bacskai, T. M. Swager, Angew. Chem. Int. Edit. 2005, 44:5452-5456; Z. P. Zhuang, M. P. Kung, H. F. Kung, J. Med. Chem. 2006, 49:2841-2844; Q. A. Li, J. S. Lee, C. Ha, C. B. Park, G. Yang, W. B. Gan, Y. T. Chang, Angew. Chem. Int. Edit. 2004, 43:6331-6335; H. F. Kung, C. W. Lee, Z. P. Zhuang, M. P. Kung, C. Hou, K. Plossl, J. Am. Chem. Soc. 2001, 123:12740-12741. […] See H. LeVine III, Protein Sci. 1993, 2:404-410. Along these lines we measured the fluorescent properties of each compound at 4 μM concentration before and after mixing with preaggregated Aβ(1-42) peptides (5 μM, aggregated in PBS buffer for 3 days at 25° C.).
Aggregated Aβ peptide was prepared by dissolving Aβ(1-42) in PBS pH 7.4 to a final concentration of 100 μM. This solution was magnetically stirred at 1200 rpm for 3 days at room temperature. The 100 μM Aβ(1-42) stock solution in PBS was aliquoted and frozen at […] for up to 4 weeks without noticeable change in its property. 150 μL of pre-aggregated Aβ(1-42) was added to 2.85 mL of compound to attain a final concentration of 5 μM Aβ(1-42) and 4 μM of compound. The solution was transferred to 3 mL cuvette and the fluorescence measured at 25° C. […] The fluorescence excitation spectra of Cmpds 8a, 8b, 8c, 14 and 19 are depicted in FIG. 4, respectively.

[2] = target: T2, pre-aggregated Aβ(1-42) peptide (Homo sapiens, UniProt P05067); experiment: Apparent binding constant (Kd) by double reciprocal fluorescence plot; details: compound 10, 5, 2.5, 1.25 μM; 5.0 μM pre-aggregated Aβ(1-42); PBS pH 7.4
T2 construct: preaggregated Aβ(1-42) peptides
T2 sequence (P05067 672-713 limits assumed): as above
Description: We also measured the apparent binding constants (Kd) of the compounds (in concentrations of 10, 5, 2.5 and 1.25 μM) to 5.0 μM pre-aggregated Aβ(1-42) peptide. The Kd can be measured from the double reciprocal of the fluorescent maximum and the concentration of the compound. See H. LeVine III, Protein Sci. 1993, 2:404-410. […] [22,] See LeVine, Id.; Lockhart, L. Ye, D. B. Judd, A. T. Merritt, P. N. Lowe, J. L. Morgenstern, G. Z. Hong, A. D. Gee, J. Brown, J. Biol. Chem. 2005, 280:7677-7684; M. Biancalana, K. Makabe, A. Koide, S. Koide, J. Mol. Biol. 2008, 383:205-213; M. Biancalana, K. Makabe, A. Koide, S. Koide, J. Mol. Biol. 2009, 385:1052-1063. The Kd corresponds to the −1/(x-intercept) of the linear regression.
Pre-aggregated Aβ(1-42) (5 μM final concentration) was mixed with various concentrations of compounds described herein (10, 5, 2.5, 1.25 μM) in PBS buffer (pH 7.4) and their fluorescence was measured. The negative inverse of the x-intercept of the linear regression, that was drawn between the double reciprocal of the fluorescence intensity maximum and concentration of the compound, represents the compound binding constant (Kd) to Aβ(1-42).
In order to quantify the dissociation constants (Kd's) for the binding of fluorescent compounds with aggregated β-amyloid peptides, we used the method described by LeVine (see H. LeVine III, Protein Sci. 1993, 2, 404-410). This method is similar to the method described by Benesi-Hildebran (see C. Yang, L. Liu, T. W. Mu, Q. X. Guo, Anal. Sci. 2000, 16, 537-539). Here, the fluorescence of the compound was measured with and without the addition of the aggregated peptides in solution. The relative fluorescence enhancement of the compound upon binding to aggregated β-amyloid peptides was determined by taking the difference between F (fluorescence after the addition of aggregated peptides) and F (fluorescence before the addition of aggregated peptides).
In order to estimate the binding constant (Kd) for the compound-Aβ complexes from the fluorescence studies, we made the following assumptions: • 1. All compounds are completely in solution and free of any significant competing binding process such as self-aggregation. • 2. The concentration of unbound compounds can be approximated as close to the total concentration of the compounds. • 3. The binding sites in the aggregated Aβ peptides are not completely occupied at the concentration of Aβ-binding compounds used for the fluorescence studies (i.e., the experiments are carried out under non-saturated binding conditions).
FIG. 2 and FIG. 6 provide double reciprocal plots of the measured fluorescence versus total concentration of compound [GO]. Assuming that [G] can be approximated as close to [GO] (assumption 2), we can obtain estimates for the Kd's of the compound-Aβ complexes from the x-intercept of the linear fits of the data for each compound.

SMILES	Emission max before binding [1] [nm]	Excitation max before binding [1] [nm]	Fold increase (fluorescence intensity after binding) [1] [fold]	Emission max after binding [1] [nm]	Excitation max after binding [1] [nm]	Red shift of emission upon binding ([1]; binding to preaggregated Aβ) [nm]	pKd [2]
COCCOCCOCCOC(=O)/C(C#N)=C/c1ccc2cc(N3CCCCC3)ccc2c1 [Cmpd 11, (E)-2-(2-(2-methoxyethoxyl)ethoxy)ethyl-2-cyano-3-(6-(piperidin-1-yl)naphthalen-2-yl)acrylate]	462	445	9.3	538	440	76	5.60
CN(C)c1ccc(/C=C(\C#N)C(=O)OCC(O)CO)cc1 (stereo not shown) [Cmpd 14, (E)-2,3-dihydroxypropyl 2-cyano-3-(4-(dimethylamino)phenyl) acrylate]	476	437	2.2	467	434	–	5.48
COCCOCCOCCOC(=O)/C(C#N)=C/c1ccc(N(C)C)cc1OC [Cmpd 8b, (E)-2-(2-(2-methoxyethoxyl)ethoxy)ethyl 2-cyano-3-(4-(dimethylamino)-2-methoxyphenyl)acrylate]	478	442	1.3	469	444	–	5.28
CCN(CC)c1ccc(C=C(C#N)C(=O)OCCOCCOCCOC)cc1 (stereo in doubt) [Cmpd 8c, (Z)-2-(2-(2-methoxyethoxyl)ethoxy)ethyl 2-cyano-3-(4-(diethylamino)phenyl)acrylate]	478	445	4.2	470	442	–	5.32
COCCOCCOCCOC(=O)/C(C#N)=C/c1ccc(N(C)C)cc1 [Cmpd 8a, (E)-2-(2-(2-methoxyethoxyl)ethoxy)ethyl 2-cyano-3-(4-(dimethylamino)phenyl)acrylate]	476	439	1.8	470	435	–	5.59
CCCCN(CCCC)c1ccc(C=C(C#N)C(=O)OCCOCCOCCOC)cc1 (stereo in doubt) [Cmpd 8d, (Z)-2-(2-(2-methoxyethoxyl)ethoxy)ethyl-2-cyano-3-(4-(dibutylamino)phenyl)acrylate]	466	432	9.4	468	440	–	5.36
